Measurements as given in ChEMBL document CHEMBL5131375, “Recent Developments in the Use of Kinase Inhibitors for Management of Viral Infections” (J Med Chem, 2022).

Experiments:
Huh7.5.1 = test: Cytotoxicity against human Huh-7.5.1 cells at 0.9 uM; format: toxicity, cell-based; details: huh7.5.1, 0.9 µM
Dengue virus = test: microbe, parasite or virus in culture
[1] = molecular target: Receptor tyrosine-protein kinase erbB-2 (Homo sapiens, UniProt P04626)
Enterovirus A71 [2] = test: Antiviral activity against enterovirus A71 infected in human RD cells assessed as decrease in viral titer by inhibition of Pim1; format: functional; parameters: scale not given: the % may be the effect or the level left
Enterovirus A71 [3] = test: Antiviral activity against enterovirus A71 assessed as reduction in viral mRNA level at 2 uM relative to control; format: functional; parameters: scale not given: the % may be the effect or the level left
in vitro [4] = details: human, hek-293t
Enterovirus A71 [5] = test: Antiviral activity against enterovirus A71 infected in human RD cells assessed as decrease in viral mRNA level at 2 uM; format: functional; parameters: scale not given: the % may be the effect or the level left
Enterovirus A71 [6] = test: Antiviral activity against enterovirus A71 infected in human HeLa cells assessed as decrease in viral titer by inhibition of Pim1; format: functional; parameters: scale not given: the % may be the effect or the level left
in vitro [7] = details: human, hela
Enterovirus A71 [8] = test: Antiviral activity against enterovirus A71 infected in human HeLa cells assessed as decrease in viral mRNA level at 2 uM; format: functional; parameters: scale not given: the % may be the effect or the level left
[9] = tested on: Human immunodeficiency virus 1; test: Antiviral activity against HIV-1 assessed as inhibition of Nef mediated replication; format: functional, organism-based
[10] = Cytotoxicity against human CEM-T4 cells; format: toxicity, cell-based
Influenza A virus [11] = test: microbe, parasite or virus in culture; details: RB1 H1N1
Influenza A virus [12] = test: microbe, parasite or virus in culture; details: FPV H7N7
Influenza A virus [13] = test: microbe, parasite or virus in culture; details: Lung, 24 h
in vitro [14] = details: dog
Influenza A virus [15] = test: microbe, parasite or virus in culture; details: H1N1v, A549
Influenza A virus [16] = test: microbe, parasite or virus in culture; details: MB1 H5N1
Influenza A virus [17] = test: microbe, parasite or virus in culture; details: GSB H5N1
Influenza A virus [18] = test: microbe, parasite or virus in culture; details: H7N7
Influenza A virus [19] = test: microbe, parasite or virus in culture; details: A/FPV/Bratislava/79 (H7N7), MDCK-II
[20] = Cytotoxicity against human NCI-H358 cells; format: toxicity, cell-based
[21] = Cytotoxicity against human NCI-H1650 cells; format: toxicity, cell-based
Focal adhesion kinase 1 = Focal adhesion kinase 1 (Homo sapiens, UniProt Q05397); test: Inhibition of FAK (unknown origin)
[22] = Cytotoxicity against human A549 cells; format: toxicity, cell-based
[23] = molecular target: T1, Cyclin-dependent kinase 7 (Homo sapiens, UniProt P50613)
in vitro [24] = details: human, hff
Human betaherpesvirus 5 = test: microbe, parasite or virus in culture; format: functional, organism-based
[25] = molecular target: T1, Cyclin-dependent kinase 7; remark: listed apart in the source
[26] = Cytotoxicity against microglia (unknown origin) cells; format: toxicity, cell-based
dengue virus type 2 [27] = test: microbe, parasite or virus in culture; format: functional, organism-based
dengue virus type 2 [28] = test: Antiviral activity against DENV2 infected in hamster BHK-21 cells; format: functional
Influenza A virus [29] = test: microbe, parasite or virus in culture; format: functional, organism-based; details: H7N9
Influenza A virus [30] = test: microbe, parasite or virus in culture; format: functional, organism-based; details: A/Anhui/1/2013 (H7N9)
Influenza A virus [31] = test: Antiviral activity against influenza A virus (A/WSN/1933) strain; format: functional, organism-based
[32] = molecular target: Tyrosine-protein kinase JAK2 (Homo sapiens, UniProt O60674); details: dose 50.0 nM
Influenza A virus [33] = test: microbe, parasite or virus in culture; format: functional, organism-based; details: H3N2
Influenza A virus [34] = test: microbe, parasite or virus in culture; format: functional, organism-based; details: H5N1
Influenza A virus [35] = test: microbe, parasite or virus in culture; format: functional, organism-based; details: A/ck/Yamaguchi/7/2004 (H5N10)
[36] = Cytotoxicity against human HCT-116 cells; format: toxicity, cell-based
Zika virus [37] = test: Antiviral activity against ZIKV MR766 infected in 1 hr pretreated rhesus monkey LLC-MK2 cells measured after 24 to 72 hrs; format: functional, organism-based
Zika virus [38] = test: microbe, parasite or virus in culture
[39] = Cytotoxicity against human astrocyte cells; format: toxicity, cell-based
[40] = molecular target: Cyclin-dependent kinase 2 (Homo sapiens, UniProt P24941)

T1 sequence (P50613 whole entry): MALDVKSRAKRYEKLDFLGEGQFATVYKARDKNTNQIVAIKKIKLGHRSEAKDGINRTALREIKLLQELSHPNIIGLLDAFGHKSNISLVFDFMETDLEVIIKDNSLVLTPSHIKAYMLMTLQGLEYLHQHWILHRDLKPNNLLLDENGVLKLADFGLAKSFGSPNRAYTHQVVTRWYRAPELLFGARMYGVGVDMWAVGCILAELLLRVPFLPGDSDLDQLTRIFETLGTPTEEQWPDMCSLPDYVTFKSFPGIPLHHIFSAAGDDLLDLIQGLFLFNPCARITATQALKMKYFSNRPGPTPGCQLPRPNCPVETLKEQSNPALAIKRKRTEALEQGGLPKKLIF
Chain of Receptor tyrosine-protein kinase erbB-2 (P04626 whole entry): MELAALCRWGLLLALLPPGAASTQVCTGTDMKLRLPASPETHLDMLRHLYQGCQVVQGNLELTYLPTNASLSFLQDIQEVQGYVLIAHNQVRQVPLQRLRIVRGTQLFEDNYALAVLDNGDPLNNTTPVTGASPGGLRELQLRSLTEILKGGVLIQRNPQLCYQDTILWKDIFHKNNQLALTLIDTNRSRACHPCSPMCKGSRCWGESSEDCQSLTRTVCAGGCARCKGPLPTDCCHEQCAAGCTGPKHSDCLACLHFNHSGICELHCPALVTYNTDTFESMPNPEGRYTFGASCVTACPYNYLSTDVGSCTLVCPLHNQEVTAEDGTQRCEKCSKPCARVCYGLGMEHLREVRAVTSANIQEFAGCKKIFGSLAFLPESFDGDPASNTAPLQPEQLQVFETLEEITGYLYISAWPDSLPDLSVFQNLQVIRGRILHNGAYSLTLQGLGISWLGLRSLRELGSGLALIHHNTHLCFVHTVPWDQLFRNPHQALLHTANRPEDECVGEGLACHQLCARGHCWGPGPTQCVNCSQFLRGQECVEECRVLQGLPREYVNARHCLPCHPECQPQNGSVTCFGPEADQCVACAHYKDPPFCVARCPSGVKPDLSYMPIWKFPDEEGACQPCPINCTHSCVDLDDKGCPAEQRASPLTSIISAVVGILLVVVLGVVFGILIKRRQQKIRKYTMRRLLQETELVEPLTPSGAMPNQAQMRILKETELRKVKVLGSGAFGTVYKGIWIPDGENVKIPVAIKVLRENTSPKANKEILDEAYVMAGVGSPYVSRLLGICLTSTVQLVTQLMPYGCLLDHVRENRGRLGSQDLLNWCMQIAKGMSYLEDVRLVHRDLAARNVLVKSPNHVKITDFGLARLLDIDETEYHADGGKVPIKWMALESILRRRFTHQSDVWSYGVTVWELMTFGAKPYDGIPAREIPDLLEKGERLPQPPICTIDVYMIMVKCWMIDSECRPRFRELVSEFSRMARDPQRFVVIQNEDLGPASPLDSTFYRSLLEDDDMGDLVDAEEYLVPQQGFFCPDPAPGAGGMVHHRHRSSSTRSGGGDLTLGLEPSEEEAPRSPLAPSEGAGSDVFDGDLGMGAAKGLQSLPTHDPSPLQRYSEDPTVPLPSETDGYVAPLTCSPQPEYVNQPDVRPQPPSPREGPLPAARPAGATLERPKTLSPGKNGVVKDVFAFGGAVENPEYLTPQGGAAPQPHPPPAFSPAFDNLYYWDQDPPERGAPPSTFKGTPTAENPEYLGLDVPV
Chain of Focal adhesion kinase 1 (Q05397 whole entry): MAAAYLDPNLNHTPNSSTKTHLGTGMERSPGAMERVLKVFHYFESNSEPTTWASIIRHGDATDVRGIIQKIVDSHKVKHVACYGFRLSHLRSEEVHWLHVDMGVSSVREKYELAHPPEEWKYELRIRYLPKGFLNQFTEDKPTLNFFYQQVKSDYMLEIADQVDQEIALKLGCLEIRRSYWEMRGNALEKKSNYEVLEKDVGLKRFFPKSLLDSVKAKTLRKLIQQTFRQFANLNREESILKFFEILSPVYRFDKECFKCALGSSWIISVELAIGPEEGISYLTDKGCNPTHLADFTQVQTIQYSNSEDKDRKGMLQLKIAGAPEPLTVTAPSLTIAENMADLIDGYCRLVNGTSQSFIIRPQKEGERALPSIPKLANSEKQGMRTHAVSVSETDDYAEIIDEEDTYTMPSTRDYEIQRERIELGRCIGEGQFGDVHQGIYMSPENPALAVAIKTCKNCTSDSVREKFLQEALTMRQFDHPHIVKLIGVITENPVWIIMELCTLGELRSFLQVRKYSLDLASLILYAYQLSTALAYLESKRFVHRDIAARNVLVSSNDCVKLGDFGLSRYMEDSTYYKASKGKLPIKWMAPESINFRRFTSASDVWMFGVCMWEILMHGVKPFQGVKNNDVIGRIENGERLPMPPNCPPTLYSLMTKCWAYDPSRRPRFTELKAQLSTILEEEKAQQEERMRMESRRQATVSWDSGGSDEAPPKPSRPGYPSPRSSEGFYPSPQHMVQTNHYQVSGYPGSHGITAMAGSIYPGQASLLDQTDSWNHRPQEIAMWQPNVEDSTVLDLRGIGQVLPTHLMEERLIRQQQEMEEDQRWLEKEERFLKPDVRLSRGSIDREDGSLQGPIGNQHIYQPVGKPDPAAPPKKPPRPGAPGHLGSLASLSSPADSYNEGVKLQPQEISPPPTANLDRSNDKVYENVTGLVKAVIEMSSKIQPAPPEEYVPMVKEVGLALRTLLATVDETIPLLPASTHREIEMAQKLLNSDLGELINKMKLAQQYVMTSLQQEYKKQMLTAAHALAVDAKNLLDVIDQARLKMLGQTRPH
Chain of Tyrosine-protein kinase JAK2 (O60674 whole entry): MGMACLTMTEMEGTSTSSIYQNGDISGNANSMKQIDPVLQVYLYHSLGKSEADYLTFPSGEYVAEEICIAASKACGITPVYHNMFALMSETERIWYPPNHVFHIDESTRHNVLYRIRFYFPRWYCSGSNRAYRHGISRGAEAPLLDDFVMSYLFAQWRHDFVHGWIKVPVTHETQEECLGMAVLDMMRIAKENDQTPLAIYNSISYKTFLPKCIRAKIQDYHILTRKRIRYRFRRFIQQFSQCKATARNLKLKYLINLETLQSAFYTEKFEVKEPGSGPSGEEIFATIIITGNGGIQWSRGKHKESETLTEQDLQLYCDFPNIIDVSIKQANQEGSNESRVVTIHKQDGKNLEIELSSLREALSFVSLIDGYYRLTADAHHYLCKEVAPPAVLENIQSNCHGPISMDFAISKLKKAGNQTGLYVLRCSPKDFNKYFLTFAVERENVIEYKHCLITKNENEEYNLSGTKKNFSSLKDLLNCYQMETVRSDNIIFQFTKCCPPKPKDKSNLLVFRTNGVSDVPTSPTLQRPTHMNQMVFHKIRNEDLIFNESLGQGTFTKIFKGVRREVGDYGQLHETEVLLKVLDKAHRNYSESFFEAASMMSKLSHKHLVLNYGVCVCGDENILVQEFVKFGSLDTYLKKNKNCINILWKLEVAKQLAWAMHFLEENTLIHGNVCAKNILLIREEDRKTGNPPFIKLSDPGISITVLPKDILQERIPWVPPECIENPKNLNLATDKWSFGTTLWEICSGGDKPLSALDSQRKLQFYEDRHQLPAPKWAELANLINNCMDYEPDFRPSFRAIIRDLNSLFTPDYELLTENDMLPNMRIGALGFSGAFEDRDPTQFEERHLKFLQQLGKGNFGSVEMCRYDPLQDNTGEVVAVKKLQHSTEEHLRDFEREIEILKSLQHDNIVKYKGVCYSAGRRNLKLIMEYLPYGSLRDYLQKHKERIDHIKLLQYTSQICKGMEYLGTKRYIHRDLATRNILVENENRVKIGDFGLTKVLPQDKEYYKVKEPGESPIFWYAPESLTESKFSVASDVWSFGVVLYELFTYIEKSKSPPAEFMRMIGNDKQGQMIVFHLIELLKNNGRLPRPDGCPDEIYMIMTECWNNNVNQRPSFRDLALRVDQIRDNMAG

CCN(CC)CC1CCN(c2ncc3ncnc(Nc4ccc(F)c(Cl)c4)c3n2)CC1
Activity (Huh7.5.1): Non-Toxic | IC50 (Dengue virus): 900 nM | IC50 [1]: 290 nM

CN1CCCN(C(=O)c2cccc(-c3ccc(/C=C4/C(=O)Nc5ccc(Cl)cc54)o3)c2)CC1
Activity (Enterovirus A71 [2]): 50% | Activity (Enterovirus A71 [3]): 70% | CC50 (in vitro [4]): > 8000 nM | Activity (Enterovirus A71 [5]): 70% | Activity (Enterovirus A71 [6]): 50% | CC50 (in vitro [7]): > 8000 nM | Activity (Enterovirus A71 [8]): 70%

NC(=S)n1nc(-c2ccc([N+](=O)[O-])cc2)c(/N=N/c2cccc(Cl)c2)c1O
IC50 [9]: 300 nM | CC50 [10]: > 10000 nM

N#CC(=C(/N)Sc1ccccc1N)/C(C#N)=C(\N)Sc1ccccc1N
EC50 (Influenza A virus [11]): 1210 nM | EC50 (Influenza A virus [12]): 82700 nM | EC50 (Influenza A virus [13]): 620000 nM | CC50 (in vitro [14]; mdck): > 50000 nM | EC50 (Influenza A virus [15]): 1200 nM | IC50 (Dengue virus): 14200 nM | EC50 (Influenza A virus [16]): 4430 nM | EC50 (Influenza A virus [17]): 36600 nM | EC50 (Influenza A virus [18]): 620000 nM | EC50 (Influenza A virus [19]): 74700 nM

Nc1cc(N)c(N)cc1N
CC50 [20]: > 1000 nM | CC50 [21]: > 1000 nM | IC50 (Focal adhesion kinase 1): 1000 nM | CC50 [22]: > 1000 nM

CC(C)c1cnn2c(NCc3ccccc3-n3cccn3)nc(OC3CCCNC3)nc12 (stereo not drawn)
IC50 [23]: < 5 nM | CC50 (in vitro [24]): 6200 nM | EC50 (Human betaherpesvirus 5): 24 nM | IC50 [25]: < 5 nM

NC(=O)c1cccc(-c2cc(Nc3ccc(OC(F)(F)F)cc3)ncn2)c1
CC50 [26]: 20000 nM | IC50 (dengue virus type 2 [27]): 15000 nM | IC90 (dengue virus type 2 [28]): 15000 nM

CC1=C(C)C2NC(=O)C(CN3C(=S)N([C@@H](C)c4ccccc4)C(=O)C3C3CC3)C=C2C=C1 (stereo partly drawn)
EC50 (Influenza A virus [29]): 20000 nM | IC50 (Influenza A virus [30]): 20 nM | IC50 (Influenza A virus [31]): 12 nM | inhibition [32]: 61% | EC50 (Influenza A virus [33]): 20 nM | CC50 (in vitro [14]; MDCK cells): 3800 nM | EC50 (Influenza A virus [34]): 20000 nM | IC50 (Influenza A virus [35]): 20 nM

CC(C)c1[nH]n(-c2c(Cl)cccc2Cl)c2nc(Cc3ccc(OCCO)cc3)nc(=O)c1-2
CC50 [36]: 40 nM | IC50 (Zika virus [37]): 27 nM | IC50 (Zika virus [38]): 90 nM | IC50 [25]: 71 nM

CCCc1cnc(NC(=O)[C@@H](C)c2ccc(NC(C)=O)cc2)s1
IC50 (Zika virus [38]): 90 nM | CC50 [39]: > 10000 nM | IC50 [40]: 31 nM
